Earlier results on 1 molecule are cited in patent publication US11083779B2, “Method for treatment of encephalopathy” (priority 2018, dated 2021).

The data set deals with toxic encephalopathy. The note with it: PIRACETAM i.v. 10-15 minutes before transcranial electrical stimulation, two steps (77 Hz, 10 Hz).

Take `NC(=O)CN1CCCC1=O` [PIRACETAM®, PIRACETAM]: the “patient symptoms after treatment” value was “decrease of headaches, giddiness and the improvement of sleep”.
